{"source": "paper PMC8234462", "about": "“Novel Cyclophilin Inhibitor Decreases Cell Proliferation and Tumor Growth in Models of Hepatocellular Carcinoma” (Cancers, 2021)", "key": {"[1]": {"test_system": "Monocytes/Macrophages", "experiment": "Cytotoxicity, CellTiter Glo", "type": "cell-based", "settings": "Homo sapiens, 168 h, 7 days of treatment, read-out: IC50 (50% reduction in cell viability)", "experimental": "(§1) The evaluation of the off-target effects of NV651 was performed by ImQuest BioSciences Inc. (Frederick, MD, USA) by analyzing the cytotoxicity in a panel of primary cells. NV651 was evaluated at a concentration of 30 µM and five serial half-logarithmic dilutions in triplicate. The positive control compounds for each cell type were purchased from Sigma-Aldrich (St. Louis, MO, USA) and were as follows:\n(§2) CellTiter Glo was performed to evaluate cell viability. CellTiter Glo Luminescent Cell Viability Assay (Promega, Madison, WI, USA) was performed according to the manufacturer’s instructions."}, "[2]": {"test_system": "Hepatocytes", "experiment": "Cytotoxicity, CellTiter Glo", "type": "cell-based", "settings": "Homo sapiens, Hepatocyte, 48 h, 2 days of treatment, read-out: IC50 (50% reduction in cell viability)", "experimental": "as §1, §2"}, "[3]": {"test_system": "iPS neurons", "experiment": "Cytotoxicity, CellTiter Glo", "type": "cell-based", "settings": "Homo sapiens, Neuron, 72 h, 3 days of treatment, read-out: IC50 (50% reduction in cell viability)", "experimental": "as §1, §2"}, "[4]": {"experiment": "Pharmacokinetics single oral administration, blood and liver", "type": "in vivo", "settings": "CD1 mice, 10 mg/kg PO; for Tmax: male, mouse", "experimental": "These experiments were performed by Shanghai ChemPartner Co., Ltd. (Shanghai, China) following the guidance described above. Twelve CD1 male mice with a weight between 28–30 g were purchased from SLAC Laboratory Animal Co. Ltd. (Shanghai, China). NV651 was diluted in 5% ethanol, 5% Cremophor EL and 90% saline. A single 10-mg/kg dose of NV651 was given orally (PO). […] At the selected time points, 30 µL of the blood samples were taken via face glass insert or cardiac puncture and placed into K2EDTA tubes. Tissues were terminal-collected at the designated time points. Thirty microliters of blood or liver samples were mixed with 100-µL Pierce Acetonitrile (ACN, Thermo Fisher Scientific, Waltham, MA, USA) containing 20-ng/mL IS (702) used as the internal standard. An aliquot of 10-µL supernatant was injected for LC-MS/MS analysis using LCMSMS-003 (API4000)."}, "[5]": {"test_system": "Bone marrow progenitors", "experiment": "Cytotoxicity, colony formation", "type": "cell-based, human", "settings": "Homo sapiens, 336 h, 14 days of treatment, colonies counted", "experimental": "The evaluation of the off-target effects of NV651 was performed by ImQuest BioSciences Inc. (Frederick, MD, USA) by analyzing the cytotoxicity in a panel of primary cells. NV651 was evaluated at a concentration of 30 µM and five serial half-logarithmic dilutions in triplicate. The positive control compounds for each cell type were purchased from Sigma-Aldrich (St. Louis, MO, USA) and were as follows: Unstimulated human peripheral blood mononuclear cells (PBMCs), phytohemagglutinin (PHA)-stimulated PBMCs, monocytes/macrophages, dendritic cells, hepatocytes, induced pluripotent stem cell (iPS) neurons: […] AZT, kidney cells (RPTEC): cisplatin and iPS cardiomyocytes: Doxazosin. Bone marrow progenitor cells (Invitrogen, Waltham, MA, USA) were suspended in cell culture medium (Iscove-modified Dulbecco medium) containing 15% FBS, 10% giant tumor-conditioned medium (Bone Marrow Plus, Sigma-Aldrich, St. […] Cells (1 × 10^5 cells/well) were seeded in 6-well plates containing NV651 in triplicate. Cells were incubated for 14 days, and colonies (more than 30 cells) were counted."}, "[6]": {"test_system": "HUH7", "experiment": "Cell cycle analysis (PI DNA content)", "type": "cell-based, human", "experimental": "(§3) For the quantification of the DNA content, cells were treated with DMSO or 100 nM of NV651. Samples were collected at 24, 48, 72 and 96 h, followed by fixation with 70% (v/v) ethanol. DNA was stained with 50-µg/mL PI. Due to the capacity of PI to stain any type of nucleotide, RNase (100 µg/mL) (Sigma-Aldrich, Cat# R4875-100MG, St. Louis, MO, USA) was also added. To quantify the apoptotic cell fraction, we measured the subG1 fraction in the cell cycle.\n(§4) Data was acquired with FACSverse Instrument and analyzed with FCS Express 6 Flow Research."}, "[7]": {"test_system": "HEPG2", "experiment": "Cell cycle analysis (PI DNA content)", "type": "cell-based, human", "experimental": "as §3, §4"}, "[8]": {"test_system": "RPTECs", "experiment": "Cytotoxicity, CellTiter Glo", "type": "cell-based, human", "settings": "Homo sapiens, RPTEC, 72 h, 3 days of treatment, read-out: IC50 (50% reduction in cell viability)", "experimental": "The evaluation of the off-target effects of NV651 was performed by ImQuest BioSciences Inc. (Frederick, MD, USA) by analyzing the cytotoxicity in a panel of primary cells. NV651 was evaluated at a concentration of 30 µM and five serial half-logarithmic dilutions in triplicate. The positive control compounds for each cell type were purchased from Sigma-Aldrich (St. Louis, MO, USA) and were as follows: Unstimulated human peripheral blood mononuclear cells (PBMCs), phytohemagglutinin (PHA)-stimulated PBMCs, monocytes/macrophages, dendritic cells, hepatocytes, induced pluripotent stem cell (iPS) neurons: […] AZT, kidney cells (RPTEC): cisplatin and iPS cardiomyocytes: Doxazosin. Human primary renal proximal tubule cells (hRPTEC, Lonza, Basel, Switzerland) were cultured at 1 × 10^4 cells/well in supplemented REGM medium (Lonza, Basel, Switzerland). Following overnight incubation for adherence, cells were treated with NV651 in triplicate. After a 3-day treatment, CellTiter Glo (Promega, Madison, WI, USA) was used. CellTiter Glo was performed to evaluate cell viability. CellTiter Glo Luminescent Cell Viability Assay (Promega, Madison, WI, USA) was performed according to the manufacturer’s instructions."}, "[9]": {"design": "method as in PMID 31717385", "settings": "cited from earlier work"}, "[10]": {"test_system": "HUH7", "experiment": "Mitochondrial membrane potential (DiOC(6)3) and PI fluorocytometry", "type": "cell-based, human", "settings": "72 h, 20, 50 or 100 nM", "experimental": "(§5) HEPG2 and HUH7 cells were seeded at 1.5 × 10^5 cells/well and 1 × 10^5 cells/well, respectively, 24 h prior to treatment. After 72 h of treatment (0, 20, 50 or 100 nM of NV651), supernatant and trypsinized cells were collected and stained with propidium iodide (PI) (Thermo Fisher Scientific, Waltham, MA, USA) at a concentration of 1 μg/mL to evaluate the plasma membrane integrity; due to the lack of cell permeability, only dead cells are able to incorporate it. In addition, changes in the mitochondrial membrane potential were evaluated by 3,3′-dihexyloxacarbocyanine iodide (DiOC(6)3)(Molecular Probes–Invitrogen, Waltham, MA, USA) staining at a concentration of 40 nM.\nas §4"}, "[11]": {"test_system": "HEPG2", "experiment": "Mitochondrial membrane potential (DiOC(6)3) and PI fluorocytometry", "type": "cell-based, human", "settings": "72 h, 20, 50 or 100 nM", "experimental": "as §5, §4"}}, "note": "Like-named read-outs stand apart in the source and are kept apart here.", "data": [{"smiles": "CC(=O)CCC1C(=O)NC(C(C)C)C(=O)NC(Cc2cc(O)cc(F)c2)C(=O)N2CCCC(N2)C(=O)OC(C(C)=CC=CC(=O)OC(C)(C)C)CC=CC=CC(O)C(C)C1O", "note": "(centres unmarked) [NV651]", "values": [{"measurement": "IC50", "setting": "[1]", "value": 24.3, "unit": "µM"}, {"measurement": "IC50", "setting": "[2]", "value": "> 30", "unit": "µM"}, {"measurement": "IC50", "setting": "[3]", "value": "> 30", "unit": "µM"}, {"measurement": "level in liver relative to blood", "setting": "[4]; 24 h after treatment", "value": "three-fold higher level in the liver than blood"}, {"measurement": "Tmax", "setting": "[4]; blood, read-out: Tmax in blood", "value": 1, "unit": "h"}, {"measurement": "Tmax", "setting": "[4]; liver, read-out: Tmax in liver", "value": 1, "unit": "h"}, {"measurement": "IC50", "setting": "[5]", "value": "> 30", "unit": "µM"}, {"measurement": "cell size (FSC-A)", "setting": "[6]; 100 nM NV651", "value": "increased trend in the cell size"}, {"measurement": "cell cycle distribution (DNA content)", "setting": "[6]; 100 nM NV651, after 48–72 h", "value": "block in the G2/M phase"}, {"measurement": "subG1 fraction (apoptotic cells)", "setting": "[6]; 100 nM NV651 up to 96 h", "value": "statistically significant increase in cell death"}, {"measurement": "cell size (FSC-A)", "setting": "[7]; 100 nM NV651", "value": "increased trend in the cell size"}, {"measurement": "cell cycle distribution (DNA content)", "setting": "[7]; 100 nM NV651, after 48–72 h", "value": "block in the G2/M phase"}, {"measurement": "subG1 fraction (apoptotic cells)", "setting": "[7]; 100 nM NV651 up to 96 h", "value": "statistically significant increase in cell death"}, {"measurement": "IC50", "setting": "[8]", "value": 20.9, "unit": "µM"}, {"measurement": "immunosuppressant activity", "setting": "[9]", "value": "no immunosuppressant activity"}, {"measurement": "changes in mitochondrial membrane potential (DiOC6(3)) and plasma membrane integrity (PI)", "setting": "[10]", "value": "did not show any significant differences"}, {"measurement": "changes in mitochondrial membrane potential (DiOC6(3)) and plasma membrane integrity (PI)", "setting": "[11]", "value": "did not show any significant differences"}]}]}
